Experiments:
splenocytic CD8+ T cells = assay: CFSE proliferation of CD8+ T cells after in vitro peptide restimulation; assay type: cell-based, mouse; settings: mice immunized s.c. twice with 50 µg peptide in IFA; splenocytes restimulated with 10 µg/mL peptide for 8 days
Description: (§1) To screen the immunodominance of epitopic peptide in the induction of RSV-F specific Th1/Th2 expression, HLA-A*0201 transgenic C57BL/6 mice were anesthetized with isoflurane and immunized with 1×10^7 pfu/50 µL of rAd-F0 or rAd-LacZ or 1×10^4 live RSV B1 via the intranasal (i.n.) route. Twenty days later, the mice were given booster immunization i.n. with the same dose. After 10 days of boost, mice were sacrificed and splenocytes were isolated for the cytokine ELISPOT assay. […] Mice body weight was monitored daily.
(§2) The splenocytes were isolated, labeled with 5-(6)-carboxyfluorescein diacetate succinimidyl ester (CFSE) (Sigma-Aldrich) and stimulated in vitro with 10 µg/mL of the synthetic peptides for 4 or 8 days. Proliferation of splenocytic CD4^+ and CD8^+ T cells was analyzed by flow cytometry (BD FACSCalibur) using PE-Cy5-labeled specific antibody against CD4 (eBioscience) or CD8 (eBioscience), respectively. Cell division index (CDI), a ratio of CFSE-diluted CD4^+ or CD8^+ T cells stimulated by peptide to CFSE-diluted unstimulated CD4^+ or CD8^+ T cells, was calculated as shown below; [drawing 1] […]
(§3) Figure 2 Epitope-specific CD4^+ and CD8^+ T-cell activation in peptide-immunized HLA-A*0201 transgenic mice. […] Proliferation of CD4^+ (A) or CD8^+ (B) lymphocytes in response to the different CD8 epitopes was analyzed by flow cytometry using anti-CD4 or CD8 antibodies conjugated with PE-Cy5. […]

IL-13 = assay: Lung IL-13 expression by real-time RT-PCR after RSV challenge; assay type: in vivo, mouse; settings: peptide in IFA s.c. twice, day 4 post challenge, normalized to GAPDH, six mice per group
Description: as §1
Lung RNA (5 µg) was mixed with 10 nmole random primers and 2 units of […] reverse transcriptase (Invitrogen) and incubated at 94°C for 10 minutes, 37°C for 30 minutes, and then at 4°C. The resulting cDNA was subjected to quantitative PCR analysis (The LightCycler® 480 Real-Time PCR system) with RSV N specific primer pairs, forward: 5′-[…]-3′ and reverse: 5′-[…]-3′. Expression of mouse GAPDH gene in the tested samples was detected as internal control by using specific primer pairs, forward: 5′-[…]-3′ and reverse: 5′-[…]-3′. The number of cycles (Ct) required for the amplification of the N gene and GAPDH was calculated. The relative expression of the N gene was calculated as followed: the individual Ct (RSV N) obtained from peptide- or vehicle-immunized lung was normalized by the respective Ct (GAPDH), and then [drawing 3] was divided by the mean of [drawing 4] . […]

RSV-B1 = assay: Body weight after live RSV challenge; assay type: in vivo, HLA-A*0201 transgenic C57BL/6 mice; settings: peptide-immunized HLA-Tg B6 mice, 10^7 pfu live RSV-B1 i.n.; weight recorded daily for 9 days
Description: as §1, with “assay. For peptide-based vaccination, transgenic mice were immunized subcutaneously (s.c.) with 50 µg of the individual synthetic peptides emulsified in 25 µL of incomplete Freund's adjuvant (IFA) (Sigma-Aldrich) and then boosted after 10 days s.c. with the same dose of the respective peptides mixed with IFA. Mice were sacrificed 7 days after the booster and splenocytes were isolated for in vitro peptide-restimulation.” for “assay.”
Figure 3 Determination of lung viral load and gain of lost body weight. […] (A) The viral load in the lungs of individual mice was determined 4 days after challenge by real-time RT-PCR to quantitate RSV N gene expression as described in the Materials and Methods. […] (B) The body weight of each mouse was recorded daily for 9 days after virus challenge. Results are expressed as % (mean) for 5 mice in each experimental group. […]

splenocytic CD4+ T cells = assay: CFSE proliferation of CD4+ T cells after in vitro peptide restimulation; assay type: cell-based, mouse; settings: mice immunized s.c. twice with 50 µg peptide in IFA; splenocytes restimulated with 10 µg/mL peptide for 8 days
Description: as §1, §2, §3

CD8+ T lymphocytes = assay: IFN-γ intracellular staining of CD8+ splenocytes; assay type: cell-based, mouse; settings: splenocytes of peptide-immunized mice stimulated with 10 µg/mL peptide for five hours; flow cytometry
Description: For IFN-γ intracellular staining, splenocytes from peptide- or vehicle-immunized mice were stimulated in vitro with the respective peptides (peptide 3, 13, 14, and 23) (10 µg/mL) for five hours, washed with 1× PBS, and stained with anti-CD8 antibody conjugated with fluorescein isothiocyanate (FITC) (BD Biosciences) for 30 minutes, followed by subsequent fixation and permeabilization following the instructions of eBioscience fixation and permeabilization kit. The splenocytes were further stained for intracellular IFN-γ using PE-conjugated anti-IFN-γ antibody (BD Biosciences) for another 30 minutes. After washing, the samples were analyzed using flow cytometry.
Figure 2 Epitope-specific CD4^+ and CD8^+ T-cell activation in peptide-immunized HLA-A*0201 transgenic mice. Splenocytes were isolated on day 17 from mice immunized twice subcutaneously with the peptides 3, 13, 14, 17, 23, or vehicle at day 0 and day 10. The splenocytes were labeled with CFSE and cultured in the presence or absence of 10 µg/mL of the respective peptides for 8 days. Proliferation of CD4^+ (A) or CD8^+ (B) lymphocytes in response to the different CD8 epitopes was analyzed by flow cytometry using anti-CD4 or CD8 antibodies conjugated with PE-Cy5. Results are presented as cell division index (CDI) as described in the Materials and Methods. […]

YMLTNSELL [peptide 14, HLA-A*0201-restricted 9-mer synthetic peptide from F protein of RSV-B1 strain]
proliferation of CD8+ T cells (cell division index) (splenocytic CD8+ T cells): ~3 fold | lung IL-13 expression vs vehicle (IL-13): normal expression | recovery of body weight loss (in words) (RSV-B1): recovered only in the last two days | proliferation of CD4+ T cells (cell division index) (splenocytic CD4+ T cells): insignificant proliferation | proportion of IFN-γ+/CD8+ T lymphocytes (CD8+ T lymphocytes): marginally increased

From paper PMC3183052, “Immunoprotectivity of HLA-A2 CTL Peptides Derived from Respiratory Syncytial Virus Fusion Protein in HLA-A2 Transgenic Mouse” (PLoS ONE, 2011)
